These compounds were tested against URAT-1 transporter (Homo sapiens (Human), UniProt Q96S37) (assay: URAT-1 inhibitor activity: [14C]-uric acid uptake in CHO-URAT1(L)GFP#8 (CHO#8) cells, scintillation proximity). Settings: inhibition of [14C]-uric acid (30 nM) uptake into CHO#8 cells; compound 0 to 10 μM; 4 parameter logistic fit.
Type: cell-based
Summary of the method: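 CHO cells stably expressing human URAT1 long isoform–eGFP fusion, pre-incubated 1 h in chloride-containing buffer pH 7.4, then given 30 nM [14C]-uric acid with compound (0–10 μM, 0.25% DMSO) in chloride-free gluconate buffer pH 7.4. Uptake measured by scintillation proximity on Cytostar plates.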

Sequence of URAT-1 transporter (Q96S37 other isoform, or with tags, fused parts or gaps): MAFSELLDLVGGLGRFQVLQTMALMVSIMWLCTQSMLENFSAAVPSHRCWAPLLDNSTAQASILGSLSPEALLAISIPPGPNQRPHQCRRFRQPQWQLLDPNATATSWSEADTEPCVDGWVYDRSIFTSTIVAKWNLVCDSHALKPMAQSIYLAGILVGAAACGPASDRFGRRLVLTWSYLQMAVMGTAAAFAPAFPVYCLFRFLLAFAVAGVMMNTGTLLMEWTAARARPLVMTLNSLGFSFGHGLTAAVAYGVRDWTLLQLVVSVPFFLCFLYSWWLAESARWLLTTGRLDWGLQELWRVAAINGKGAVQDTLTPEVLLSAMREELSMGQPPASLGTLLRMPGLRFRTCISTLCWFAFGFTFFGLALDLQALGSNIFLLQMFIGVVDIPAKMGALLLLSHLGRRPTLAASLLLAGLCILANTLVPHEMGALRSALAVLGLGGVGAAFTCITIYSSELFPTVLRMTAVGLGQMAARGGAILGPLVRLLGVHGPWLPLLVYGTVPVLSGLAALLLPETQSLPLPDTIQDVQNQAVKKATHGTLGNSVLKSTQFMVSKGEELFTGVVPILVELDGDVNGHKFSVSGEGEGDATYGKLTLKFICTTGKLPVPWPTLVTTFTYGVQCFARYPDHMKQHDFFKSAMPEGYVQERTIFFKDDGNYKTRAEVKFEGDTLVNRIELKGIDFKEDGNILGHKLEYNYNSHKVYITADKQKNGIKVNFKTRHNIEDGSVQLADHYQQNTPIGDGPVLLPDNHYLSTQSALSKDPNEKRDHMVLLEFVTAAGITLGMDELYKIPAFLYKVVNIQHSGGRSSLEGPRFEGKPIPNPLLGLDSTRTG

Structure (SMILES) | IC50 [nM]
N#Cc1ccc(Oc2cc(F)c(S(=O)(=O)Nc3ncc(F)cn3)cc2Cl)cc1Cl [compound 226] | 1780
N#Cc1cc(S(=O)(=O)Nc2ccc(F)cn2)ccc1Oc1cccc(Cl)c1 [Example 25, 4-(3-chlorophenoxy)-3-cyano-N-(5-fluoropyridin-2-yl)benzenesulfonamide] | 86
N#Cc1cc(S(=O)(=O)Nc2ccc(F)cn2)ccc1Oc1cccc(OC(F)(F)F)c1 [Example 18, 3-cyano-N-(5-fluoropyridin-2-yl)-4-[3-(trifluoromethoxy)phenoxy]benzenesulfonamide] | > 10000
Cc1cc(Oc2ccc(S(=O)(=O)Nc3ccc(F)cn3)cc2C#N)ccc1Cl [Example 34, 4-(4-chloro-3-methylphenoxy)-3-cyano-N-(5-fluoropyridin-2-yl)benzenesulfonamide] | 80
N#Cc1ccc(Oc2ccc(S(=O)(=O)Nc3ncccn3)cc2C#N)cc1Cl [Example 90, 4-(3-chloro-4-cyanophenoxy)-3-cyano-N-(pyrimidin-2-yl)benzenesulfonamide] | > 3580
O=S(=O)(Nc1cccnn1)c1cc(Cl)c(Oc2ccc(Cl)cc2OC(F)F)cc1F [Example 85, 5-chloro-4-[4-chloro-2-(difluoromethoxy)phenoxy]-2-fluoro-N-(pyridazin-3-yl)benzenesulfonamide] | > 10000
Cc1c(F)ccc(Oc2ccc(S(=O)(=O)Nc3ccc(F)cn3)cc2C#N)c1C [Example 172, 3-cyano-4-(4-fluoro-2,3-dimethylphenoxy)-N-(5-fluoropyridin-2-yl)benzenesulfonamide] | 502
COc1ccc(Cl)cc1Oc1ccc(S(=O)(=O)Nc2ccc(F)cn2)cc1C#N [Example 106, 4-(5-chloro-2-methoxyphenoxy)-3-cyano-N-(5-fluoropyridin-2-yl)benzenesulfonamide] | > 10000
CCOc1cccc(Oc2ccc(S(=O)(=O)Nc3ccc(F)cn3)cc2C#N)c1 [Example 135, 3-cyano-4-(3-ethoxyphenoxy)-N-(5-fluoropyridin-2-yl)benzenesulfonamide] | > 10000
N#Cc1cc(S(=O)(=O)Nc2ccc(F)cn2)ccc1Oc1ccc(F)cc1F [Example 7, 3-cyano-4-(2,4-difluorophenoxy)-N-(5-fluoropyridin-2-yl)benzenesulfonamide] | 64
N#Cc1cc(S(=O)(=O)Nc2ccc(F)cn2)ccc1Oc1ccc(F)c(F)c1 [Example 77, 3-cyano-4-(3,4-difluorophenoxy)-N-(5-fluoropyridin-2-yl)benzenesulfonamide] | 43
N#Cc1cc(S(=O)(=O)Nc2ccc(F)cn2)ccc1Oc1cc(C(F)(F)F)ccc1F [Example 4, 3-cyano-N-(5-fluoropyridin-2-yl)-4-[2-fluoro-5-(trifluoromethyl)phenoxy]benzenesulfonamide] | > 10000
CC(C)(C)c1cc(Oc2ccc(S(=O)(=O)Nc3ccc(F)cn3)cc2C#N)ccc1C#N [Example 161, 4-(3-tert-butyl-4-cyanophenoxy)-3-cyano-N-(5-fluoropyridin-2-yl)benzenesulfonamide] | > 10000
COc1cccc(Cl)c1Oc1ccc(S(=O)(=O)Nc2ccc(F)cn2)cc1C#N [Example 114, 4-(2-chloro-6-methoxyphenoxy)-3-cyano-N-(5-fluoropyridin-2-yl)benzenesulfonamide] | 69
N#Cc1cc(S(=O)(=O)Nc2ccc(F)cn2)ccc1Oc1cc(F)ccc1F [Example 53, 3-cyano-4-(2,5-difluorophenoxy)-N-(5-fluoropyridin-2-yl)benzenesulfonamide] | 191
N#Cc1cc(S(=O)(=O)Nc2ccc(F)cn2)ccc1Oc1cnc(C2CC2)c(Cl)c1 [Example 180, 4-[(5-chloro-6-cyclopropylpyridin-3-yl)oxy]-3-cyano-N-(5-fluoropyridin-2-yl)benzenesulfonamide] | 877

Structure (SMILES) | IC50 [nM]
CC(C)c1ncc(Oc2ccc(S(=O)(=O)Nc3ccc(F)cn3)cc2C#N)cc1Cl [Example 117, 4-{[5-chloro-6-(propan-2-yl)pyridin-3-yl]oxy}-3-cyano-N-(5-fluoropyridin-2-yl)benzenesulfonamide] | > 10000
N#Cc1cc(Oc2ccc(S(=O)(=O)Nc3ccc(F)cn3)cc2C#N)ccc1Cl [Example 60, 4-(4-chloro-3-cyanophenoxy)-3-cyano-N-(5-fluoropyridin-2-yl)benzenesulfonamide] | 92
Cc1cc(Oc2ccc(S(=O)(=O)Nc3ccc(F)cn3)cc2C#N)c(Cl)cc1Cl [Example 109, 3-cyano-4-(2,4-dichloro-5-methylphenoxy)-N-(5-fluoropyridin-2-yl)benzenesulfonamide] | 892
N#Cc1cc(S(=O)(=O)Nc2ccc(F)cn2)ccc1Oc1cc(F)c(F)cc1Cl [Example 177, 4-(2-chloro-4,5-difluorophenoxy)-3-cyano-N-(5-fluoropyridin-2-yl)benzenesulfonamide] | 246
N#Cc1cc(S(=O)(=O)Nc2ccc(F)cn2)ccc1Oc1cccc(C#N)c1Cl [Example 64, 4-(2-chloro-3-cyanophenoxy)-3-cyano-N-(5-fluoropyridin-2-yl)benzenesulfonamide] | > 1130
O=S(=O)(Nc1cccnn1)c1ccc(Oc2ccc(Cl)cc2OC(F)F)c(Cl)c1 [Example 84, 3-chloro-4-[4-chloro-2-(difluoromethoxy)phenoxy]-N-(pyridazin-3-yl)benzenesulfonamide] | > 8870
Cc1cc(Oc2ccc(S(=O)(=O)Nc3ccc(F)cn3)cc2C#N)ccc1C#N [Example 61, 3-cyano-4-(4-cyano-3-methylphenoxy)-N-(5-fluoropyridin-2-yl)benzenesulfonamide] | 39
N#Cc1ccc(Oc2cc(F)c(S(=O)(=O)Nc3ccc(F)cn3)cc2Cl)cc1F [compound 215] | > 10000
COc1ccc(C)cc1Oc1ccc(S(=O)(=O)Nc2ccc(F)cn2)cc1C#N [Example 155, 3-cyano-N-(5-fluoropyridin-2-yl)-4-(2-methoxy-5-methylphenoxy)benzenesulfonamide] | 191
N#Cc1cc(S(=O)(=O)Nc2ccc(F)cn2)ccc1Oc1ccc(Cl)cc1OC(F)F [Example 74, 4-[4-chloro-2-(difluoromethoxy)phenoxy]-3-cyano-N-(5-fluoropyridin-2-yl)benzenesulfonamide] | > 10000
N#Cc1cc(S(=O)(=O)Nc2ccc(F)cn2)ccc1Oc1ccc(C#N)c(C2CC2)c1 [Example 203, 3-cyano-4-(4-cyano-3-cyclopropylphenoxy)-N-(5-fluoropyridin-2-yl)benzenesulfonamide] | 37
CCOc1cc(C)ccc1Oc1ccc(S(=O)(=O)Nc2ccc(F)cn2)cc1C#N [Example 138, 3-cyano-4-(2-ethoxy-4-methylphenoxy)-N-(5-fluoropyridin-2-yl)benzenesulfonamide] | 9210
N#Cc1cc(S(=O)(=O)Nc2ccc(F)cn2)ccc1Oc1cccc(Cl)c1F [Example 24, 4-(3-chloro-2-fluorophenoxy)-3-cyano-N-(5-fluoropyridin-2-yl)benzenesulfonamide] | 135
N#Cc1cc(S(=O)(=O)Nc2ccc(F)cn2)ccc1Oc1ccc(Cl)c(Cl)c1 [Example 122, 3-cyano-4-(3,4-dichlorophenoxy)-N-(5-fluoropyridin-2-yl)benzenesulfonamide] | 99
N#Cc1cc(S(=O)(=O)Nc2ccc(F)cn2)ccc1Oc1cccc(F)c1 [Example 52, 3-cyano-4-(3-fluorophenoxy)-N-(5-fluoropyridin-2-yl)benzenesulfonamide] | 259
N#Cc1cc(S(=O)(=O)Nc2ccc(F)cn2)ccc1Oc1ccccc1F [Example 41, 3-cyano-4-(2-fluorophenoxy)-N-(5-fluoropyridin-2-yl)benzenesulfonamide] | 162

Source: US9067922B2, “Chemical compounds” (Pfizer Limited, priority 2013, dated 2015)
